In ChEMBL document CHEMBL5620413, “Novel pterostilbene derivatives ameliorate heart failure by reducing oxidative stress and inflammation through regulating Nrf2/NF-κB signaling pathway” (Eur J Med Chem, 2023):
Calls of active or inactive are those of the source.

Experiments:
Mus musculus [1] = test: Protection against cardiac dysfunction C57BL/6J mouse model assessed as decrease in DOX-induced serum ALT level at 7 mg/kg, ip administered daily for 4 weeks; type: functional, organism-based
H9c2 [2] = test: Antiinflammatory activity against rat H9c2 cells assessed as decrease in LPS-induced NF-kappaB phosphorylation upto 10 uM preincubated for 1 hr followed by LPS treatment for 24 hrs by Western blot analysis; type: functional, cell-based; settings: time 25.0 hrs
RAW264.7 [3] = test: Inhibition of ROS generation in mouse RAW264.7 cells assessed as increase in DOX-reduced GPX1 expression upto 10 uM preincubated for 1 hr followed by DOX treatment for 12 hrs by Western blot analysis; type: functional, cell-based; settings: time 13.0 hrs
RAW264.7 [4] = test: Inhibition of ROS generation in mouse RAW264.7 cells assessed as increase in DOX-reduced Nrf2 expression upto 10 uM preincubated for 1 hr followed by DOX treatment for 12 hrs by Western blot analysis; type: functional, cell-based; settings: time 13.0 hrs
RAW264.7 [5] = test: Inhibition of ROS generation in mouse RAW264.7 cells preincubated for 1 hr followed by LPS treatment for 24 hrs by DCFH-DA dye based analysis; type: functional, cell-based; settings: dose <= 10.0 µM, time 25.0 hrs
Mus musculus [6] = test: Protection against cardiac dysfunction C57BL/6J mouse model assessed as decrease in DOX-induced serum HBDH level at 7 mg/kg, ip administered daily for 4 weeks; type: functional, organism-based
H9c2 [7] = test: Antiinflammatory activity against rat H9c2 cells assessed as decrease in DOX-induced NF-kappaB phosphorylation upto 10 uM preincubated for 1 hr followed by DOX treatment for 12 hrs by Western blot analysis; type: functional, cell-based; settings: time 13.0 hrs
Mus musculus [8] = test: Antiinflammatory activity in cardiac dysfunction C57BL/6J mouse model assessed as decrease in DOX-induced TNF-alpha expression at 7 mg/kg, ip administered daily for 4 weeks by Western blot analysis; type: functional, organism-based
Mus musculus [9] = test: Inhibition of DOX-induced cardiac ROS generation in cardiac dysfunction C57BL/6J mouse model at 7 mg/kg, ip administered daily for 4 weeks by DHE staining based analysis; type: functional, organism-based
H9c2 [10] = test: Inhibition of ROS generation in rat H9c2 cells assessed as increase in DOX-reduced SOD expression upto 10 uM preincubated for 1 hr followed by DOX treatment for 12 hrs by Western blot analysis; type: functional, cell-based; settings: time 13.0 hrs
H9c2 [11] = test: Inhibition of ROS generation in rat H9c2 cells assessed as increase in LPS-reduced Nrf2 expression upto 10 uM preincubated for 1 hr followed by LPS treatment for 24 hrs by Western blot analysis; type: functional, cell-based; settings: time 25.0 hrs
RAW264.7 [12] = test: Inhibition of ROS generation in mouse RAW264.7 cells assessed as increase in DOX-reduced CAT expression upto 10 uM preincubated for 1 hr followed by DOX treatment for 12 hrs by Western blot analysis; type: functional, cell-based; settings: time 13.0 hrs
RAW264.7 [13] = test: Inhibition of ROS generation in mouse RAW264.7 cells assessed as increase in DOX-reduced SOD expression upto 10 uM preincubated for 1 hr followed by DOX treatment for 12 hrs by Western blot analysis; type: functional, cell-based; settings: time 13.0 hrs
Mus musculus [14] = test: Protection against cardiac dysfunction C57BL/6J mouse model assessed as decrease in DOX-induced serum ALP level at 7 mg/kg, ip administered daily for 4 weeks; type: functional, organism-based
Mus musculus [15] = test: Protection against cardiac dysfunction C57BL/6J mouse model assessed as decrease in DOX-induced myocardial fibrosis at 7 mg/kg, ip administered daily for 4 weeks by Sirius Red staining based analysis; type: functional, organism-based
Mus musculus [16] = test: Protection against cardiac dysfunction C57BL/6J mouse model assessed as decrease in DOX-induced accumulation of inflammatory cells at 7 mg/kg, ip administered daily for 4 weeks by H and E staining based analysis; type: functional, organism-based
Mus musculus [17] = test: Protection against cardiac dysfunction C57BL/6J mouse model assessed as decrease in DOX-induced TGF-beta1 expression at 7 mg/kg, ip administered daily for 4 weeks by Western blot analysis; type: functional, organism-based
RAW264.7 [18] = test: Inhibition of ROS generation in mouse RAW264.7 cells preincubated for 1 hr followed by DOX treatment for 12 hrs by DCFH-DA dye based analysis; type: functional, cell-based; settings: dose <= 10.0 µM, time 13.0 hrs
H9c2 [19] = test: Inhibition of ROS generation in rat H9c2 cells preincubated for 1 hr followed by DOX treatment for 12 hrs by DCFH-DA dye based analysis; type: functional, cell-based; settings: dose <= 10.0 µM, time 13.0 hrs
RAW264.7 [20] = test: Antiinflammatory activity in mouse RAW264.7 cells assessed as decrease in LPS-induced NO production preincubated for 1 hr followed by LPS treatment for 24 hrs by Griess reagent based assay; type: functional, cell-based; settings: dose <= 10.0 µM, time 25.0 hrs
H9c2 [21] = test: Inhibition of ROS generation in rat H9c2 cells assessed as increase in DOX-reduced GPX1 expression upto 10 uM preincubated for 1 hr followed by DOX treatment for 12 hrs by Western blot analysis; type: functional, cell-based; settings: time 13.0 hrs
Mus musculus [22] = test: Antiinflammatory activity in cardiac dysfunction C57BL/6J mouse model assessed as decrease in DOX-induced IL-6 expression at 7 mg/kg, ip administered daily for 4 weeks by Western blot analysis; type: functional, organism-based
Mus musculus [23] = test: Protection against cardiac dysfunction C57BL/6J mouse model assessed as decrease in DOX-induced serum CK level at 7 mg/kg, ip administered daily for 4 weeks; type: functional, organism-based
Mus musculus [24] = test: Protection against cardiac dysfunction C57BL/6J mouse model assessed as increase in DOX-reduced cardiac GPX1 expression at 7 mg/kg, ip administered daily for 4 weeks by Western blot analysis; type: functional, organism-based
Mus musculus [25] = test: Antiinflammatory activity in cardiac dysfunction C57BL/6J mouse model assessed as decrease in DOX-induced IL-1beta expression at 7 mg/kg, ip administered daily for 4 weeks by Western blot analysis; type: functional, organism-based
H9c2 [26] = test: Inhibition of ROS generation in rat H9c2 cells preincubated for 1 hr followed by LPS treatment for 24 hrs by DCFH-DA dye based analysis; type: functional, cell-based; settings: dose <= 10.0 µM, time 25.0 hrs
H9c2 [27] = test: Inhibition of ROS generation in rat H9c2 cells assessed as increase in DOX-reduced Nrf2 expression upto 10 uM preincubated for 1 hr followed by DOX treatment for 12 hrs by Western blot analysis; type: functional, cell-based; settings: time 13.0 hrs
RAW264.7 [28] = test: Antiinflammatory activity against mouse RAW264.7 cells assessed as decrease in LPS-induced TNF-alpha expression upto 10 uM preincubated for 1 hr followed by LPS treatment for 24 hrs by Western blot analysis; type: functional, cell-based; settings: time 25.0 hrs
Mus musculus [29] = test: Protection against cardiac dysfunction C57BL/6J mouse model assessed as increase in DOX-reduced ratio of heart weight to body weight at 7 mg/kg, ip administered daily for 4 weeks; type: functional, organism-based
H9c2 [30] = test: Antiinflammatory activity against rat H9c2 cells assessed as decrease in DOX-induced IL-1beta expression upto 10 uM preincubated for 1 hr followed by DOX treatment for 12 hrs by Western blot analysis; type: functional, cell-based; settings: time 13.0 hrs
H9c2 [31] = test: Antiinflammatory activity against rat H9c2 cells assessed as decrease in DOX-induced IL-6 expression upto 10 uM preincubated for 1 hr followed by DOX treatment for 12 hrs by Western blot analysis; type: functional, cell-based; settings: time 13.0 hrs
Mus musculus [32] = test: Protection against cardiac dysfunction C57BL/6J mouse model assessed as increase in DOX-reduced LVEF at 7 mg/kg, ip administered daily for 4 weeks by echocardiography; type: functional, organism-based
RAW264.7 [33] = test: Antiinflammatory activity against mouse RAW264.7 cells assessed as decrease in LPS-induced IL-1beta mRNA expression upto 10 uM preincubated for 1 hr followed by LPS treatment for 24 hrs by qRT-PCR analysis; type: functional, cell-based; settings: time 25.0 hrs

CCCCOc1ccc(/C=C/c2cc(OC)cc(OC)c2C2CC(C)=NN2C(C)=O)cc1 (stereo not drawn)
active: Activity (Mus musculus [1]) | Activity (H9c2 [2]) | inhibition (RAW264.7 [3]) | inhibition (RAW264.7 [4]) | inhibition (RAW264.7 [5]) Dose-Dependent Effect | Activity (Mus musculus [6]) | Activity (H9c2 [7]) | Activity (Mus musculus [8]) | inhibition (Mus musculus [9]) | inhibition (H9c2 [10]) | inhibition (H9c2 [11]) | inhibition (RAW264.7 [12]) | inhibition (RAW264.7 [13]) | Activity (Mus musculus [14]) | Activity (Mus musculus [15]) | Activity (Mus musculus [16]) | Activity (Mus musculus [17]) | inhibition (RAW264.7 [18]) Dose-Dependent Effect | inhibition (H9c2 [19]) Dose-Dependent Effect | Activity (RAW264.7 [20]) Dose-Dependent Effect | inhibition (H9c2 [21]) | Activity (Mus musculus [22]) | Activity (Mus musculus [23]) | Activity (Mus musculus [24]) | Activity (Mus musculus [25]) | inhibition (H9c2 [26]) Dose-Dependent Effect | inhibition (H9c2 [27]) | Activity (RAW264.7 [28]) | Activity (Mus musculus [29]) | Activity (H9c2 [30]) | Activity (H9c2 [31]) | Activity (Mus musculus [32]) | Activity (RAW264.7 [33])
